The target of assay [1] is T1, human V1a receptor (Homo sapiens, UniProt P37288).
T1 construct: expressed in transfected cells; host or cells: CHO K1 (ATCC), also stably transfected with a modified aequorin
Briefly: Cellular in vitro assay for vasopressin receptor activity, V1a cell line (aequorin luminescence). The settings on record: for pIC50: CHO cell line transfected with human V1a receptor, agonist [Arg8]-vasopressin at EC50 concentration, read-out: IC50hV1a; for ratio IC50 hV2/hV1a: ratio of the IC50 on human V2 to the IC50 on human V1a. Format: cell-based. On the procedure:
(§1) B-1. Cellular In Vitro Assay for Determining Vasopressin Receptor Activity
(§2) The identification of agonists and antagonists of the V1a and V2 vasopressin receptors from humans, rats and dogs as well as the quantification of the activity of the compounds of the invention is carried out using recombinant cell lines. These cell lines originally derive from a hamster's ovary epithelial cell (Chinese Hamster Ovary, CHO K1, ATCC: American Type Culture Collection, Manassas, Va. 20108, USA). The test cell lines constitutively express the human, rat or dog V1a or V2 receptors. In case of the Gαq-coupled V1a receptors, cells are also stably transfected with a modified form of the calcium-sensitive photoproteins aequorin (human and rat V1a) or obelin (dog V1a), which, after reconstitution with the cofactor coelenterazine, emit light when there are increases in free calcium concentrations [Rizzuto R, Simpson A W, Brini M, Pozzan T, Nature 358, 325-327 (1992); Illarionov B A, Bondar V S, Illarionova V A, Vysotski E S, Gene 153 (2), 273-274 (1995)]. The resulting vasopressin receptor cells react to stimulation of the recombinantly expressed V1a receptors by intracellular release of calcium ions, which can be quantified by the resulting photoprotein luminescence. The Gs-coupled V2 receptors are stably transfected into cell lines expressing the gene for firefly luciferase under control of a CRE-responsible promoter. Activation of V2 receptors induces the activation of the CRE-responsive promoter via cAMP increase, thereby inducing the expression of firefly luciferase. The light emitted by photoproteins of V1a cell lines as well as the light emitted by firefly luciferase of V2 cell lines corresponds to the activation or inhibition of the respective vasopressin receptor. The bioluminescence of the cell lines is detected using a suitable luminometer [Milligan G, Marshall F, Rees S, Trends in Pharmacological Sciences 17, 235-237 (1996)].
Vasopressin V1a Receptor Cell Lines:
On the day before the assay, the cells are plated out in culture medium (DMEM/F12, 2% FCS, 2 mM glutamine, 10 mM HEPES, 5 μg/ml coelenterazine) in 384-well microtiter plates and kept in a cell incubator (96% humidity, 5% v/v CO2, 37° C.). On the day of the assay, test compounds in various concentrations are placed for 10 minutes in the wells of the microtiter plate before the agonist [Arg^8]-vasopressin at EC50 concentration is added. The resulting light signal is measured immediately in a luminometer.
(§3) Table 1A below lists individual IC50 values for the compounds of the invention (including racemic mixtures as well as separated enantiomers) that were obtained from cell lines transfected with the human V1a or V2 receptor: […]

Assay [2] deals with T2, human V2 receptor (Homo sapiens, UniProt P30518).
T2 construct: expressed in transfected cells; host or cells: CHO K1 (ATCC) line expressing firefly luciferase under a CRE-responsive promoter
T2 sequence (P30518 whole entry): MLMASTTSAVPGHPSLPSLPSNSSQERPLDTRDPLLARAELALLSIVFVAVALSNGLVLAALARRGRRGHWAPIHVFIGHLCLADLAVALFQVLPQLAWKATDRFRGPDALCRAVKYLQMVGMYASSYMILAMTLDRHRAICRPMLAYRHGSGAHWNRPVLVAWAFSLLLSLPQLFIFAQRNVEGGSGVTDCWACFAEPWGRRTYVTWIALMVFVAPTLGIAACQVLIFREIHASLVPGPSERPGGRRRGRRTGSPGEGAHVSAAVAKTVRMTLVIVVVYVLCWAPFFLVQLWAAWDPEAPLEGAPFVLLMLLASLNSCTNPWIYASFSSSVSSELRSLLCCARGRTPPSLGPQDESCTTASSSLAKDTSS
Briefly: Cellular in vitro assay for vasopressin receptor activity, V2 cell line (CRE-luciferase). The settings on record: CHO cell line transfected with human V2 receptor; agonist [Arg8]-vasopressin at EC50 concentration, 3 hours; read-out: IC50hV2. Format: cell-based. On the procedure:
as §1, §2
Vasopressin V2 Receptor Cell Lines:
On the day before the assay, the cells are plated out in culture medium (DMEM/F12, 2% FCS, 2 mM glutamine, 10 mM HEPES) in 384-well microtiter plates and kept in a cell incubator (96% humidity, 5% v/v CO2, 37° C.). On the day of the assay, test compounds in various concentrations and the agonist [Arg^8]-vasopressin at EC50 concentration are added together to the wells, and plates are incubated for 3 hours in a cell incubator. Upon addition of the cell lysis reagent Triton™ and the substrate luciferin, luminescence of firefly luciferase is measured in a luminometer.
as §3

pIC50: −log10 of the molar value.

T1 sequence (P37288 whole entry): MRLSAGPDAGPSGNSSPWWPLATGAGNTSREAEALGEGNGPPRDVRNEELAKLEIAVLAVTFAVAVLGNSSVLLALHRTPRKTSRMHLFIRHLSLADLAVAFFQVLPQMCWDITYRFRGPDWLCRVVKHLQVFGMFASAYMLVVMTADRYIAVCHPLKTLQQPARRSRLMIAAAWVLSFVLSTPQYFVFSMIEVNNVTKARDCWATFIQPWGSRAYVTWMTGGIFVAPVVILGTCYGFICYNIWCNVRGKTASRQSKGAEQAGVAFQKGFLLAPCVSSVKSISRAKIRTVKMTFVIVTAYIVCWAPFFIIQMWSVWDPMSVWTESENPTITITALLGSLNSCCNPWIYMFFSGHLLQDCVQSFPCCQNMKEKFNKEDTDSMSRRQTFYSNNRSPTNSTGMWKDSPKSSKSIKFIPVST

As to `CC(F)c1nc(Cn2nc(-c3ccc(Cl)cc3)n(C[C@H](O)C(F)(F)F)c2=O)nn1-c1ccccc1Cl` (mixture of isomers) [Example 1, 5-(4-Chlorophenyl)-2-({1-(2-chlorophenyl)-5-[1-fluoroethyl]-1H-1,2,4-triazol-3-yl}methyl)-4-[(2S)-3,3,3-trifluoro-2-hydroxypropyl]-2,4-dihydro-3H-1,2,4-triazol-3-one], in assay [1], the pIC50 is 9.46 and the “ratio IC50 hV2/hV1a” value is 2.0. In addition, the pIC50 in assay [2] is 9.15.
The corresponding values for `CC(F)c1nc(Cn2nc(-c3ccc(Cl)cc3)n(C[C@H](O)C(F)(F)F)c2=O)nn1-c1cnccc1Cl` (mixture of isomers) [Example 4, 5-(4-Chlorophenyl)-2-({1-(4-chloropyridin-3-yl)-5-[1-fluoroethyl]-1H-1,2,4-triazol-3-yl}methyl)-4-[(2S)-3,3,3-trifluoro-2-hydroxypropyl]-2,4-dihydro-3H-1,2,4-triazol-3-one] are 8.69, 9.0 and 7.73.
The corresponding values for `CC(F)c1nc(Cn2nc(-c3ccc(Cl)cc3)n(C[C@H](O)C(F)(F)F)c2=O)nn1-c1cccc(Cl)c1` (mixture of isomers) [Example 16, 5-(4-Chlorophenyl)-2-({1-(3-chlorophenyl)-5-[1-fluoroethyl]-1H-1,2,4-triazol-3-yl}methyl)-4-[(2S)-3,3,3-trifluoro-2-hydroxypropyl]-2,4-dihydro-3H-1,2,4-triazol-3-one] are 7.80, 0.0 and 9.24.
The corresponding values for `CC(F)c1nc(Cn2nc(-c3ccc(Cl)cc3)n(C[C@H](O)C(F)(F)F)c2=O)nn1-c1ncccc1Cl` (mixture of isomers) [Example 19, 5-(4-Chlorophenyl)-2-({1-(3-chloropyridin-2-yl)-5-[1-fluoroethyl]-1H-1,2,4-triazol-3-yl}methyl)-4-[(2S)-3,3,3-trifluoro-2-hydroxypropyl]-2,4-dihydro-3H-1,2,4-triazol-3-one] are 8.55, 5.2 and 7.83.
With `CC(F)c1nc(Cn2nc(-c3ccc(Cl)cc3)n(C[C@H](O)C(F)(F)F)c2=O)nn1-c1ccccc1C(F)(F)F` (mixture of isomers) [Example 22, 5-(4-Chlorophenyl)-2-({5-[1-fluoroethyl]-1-[2-(trifluoromethyl)phenyl]-1H-1,2,4-triazol-3-yl}methyl)-4-[(2S)-3,3,3-trifluoro-2-hydroxypropyl]-2,4-dihydro-3H-1,2,4-triazol-3-one], in assay [1], the pIC50 was 8.41 and the “ratio IC50 hV2/hV1a” value worked out at 3.5. The pIC50 in assay [2] was 7.87.
The matching figures for `CC(F)c1nc(Cn2nc(-c3ccc(Cl)cc3)n(C[C@H](O)C(F)(F)F)c2=O)nn1-c1ccccc1OC(F)(F)F` (mixture of isomers) [Example 25, 5-(4-Chlorophenyl)-2-({5-[1-fluoroethyl]-1-[2-(trifluoromethoxy)phenyl]-1H-1,2,4-triazol-3-yl}methyl)-4-[(2S)-3,3,3-trifluoro-2-hydroxypropyl]-2,4-dihydro-3H-1,2,4-triazol-3-one]: 8.57, 6.3 and 7.77.
The corresponding values for `CCc1ccccc1-n1nc(Cn2nc(-c3ccc(Cl)cc3)n(C[C@H](O)C(F)(F)F)c2=O)nc1C(C)F` (mixture of isomers) [Example 28, 5-(4-Chlorophenyl)-2-({1-(2-ethylphenyl)-5-[1-fluoroethyl]-1H-1,2,4-triazol-3-yl}methyl)-4-[(2S)-3,3,3-trifluoro-2-hydroxypropyl]-2,4-dihydro-3H-1,2,4-triazol-3-one] are 8.73, 0.4 and 9.12.

(Values after patent US10525041B2, “Fluoroalkyl-substituted aryltriazole derivatives and uses thereof” (BAYER PHARMA AKTIENGESELLSCHAFT, priority 2016, dated 2020).)
